What was measured:
Format in all cases: functional
[1] = tested on: Staphylococcus aureus; experiment: Synergistic antimicrobial activity against methicillin-resistant Staphylococcus aureus assessed as fractional inhibitory concentration index in presence of vancomycin by checkerboard assay
[2] = tested on: Staphylococcus aureus; experiment: Synergistic antimicrobial activity against methicillin-resistant Staphylococcus aureus assessed as fractional inhibitory concentration index in presence of levofloxacin by checkerboard assay
[3] = tested on: Staphylococcus aureus; experiment: Synergistic antimicrobial activity against methicillin-resistant Staphylococcus aureus assessed as fractional inhibitory concentration index in presence of chloramphenicol incubated for 24 hrs by checkerboard assay
[4] = tested on: Staphylococcus aureus; experiment: Synergistic antimicrobial activity against methicillin-resistant Staphylococcus aureus assessed as fractional inhibitory concentration index in presence of minocycline incubated for 24 hrs by checkerboard assay
[5] = tested on: Staphylococcus aureus; experiment: Synergistic antimicrobial activity against methicillin-resistant Staphylococcus aureus assessed as fractional inhibitory concentration index in presence of gentamicin incubated for 24 hrs by checkerboard assay
[6] = tested on: Staphylococcus aureus; experiment: Synergistic antimicrobial activity against methicillin-resistant Staphylococcus aureus CCARM 3089 assessed as fractional inhibitory concentration index in presence of oxacillin incubated for 24 hrs by checkerboard assay
[7] = tested on: Staphylococcus aureus; experiment: Synergistic antimicrobial activity against methicillin-resistant Staphylococcus aureus CCARM 3089 assessed as fractional inhibitory concentration index in presence of Chloramphenicol incubated for 24 hrs by checkerboard assay
[8] = tested on: Staphylococcus aureus; experiment: Synergistic antimicrobial activity against methicillin-resistant Staphylococcus aureus assessed as fractional inhibitory concentration index in presence of teicoplanin by checkerboard assay
[9] = tested on: Staphylococcus aureus; experiment: Synergistic antibacterial activity against methicillin resistant Staphylococcus aureus assessed as fractional inhibitory concentration index in presence of oxacillin incubated for 24 hrs by checkerboard assay
[10] = tested on: Staphylococcus aureus; experiment: Synergistic antibacterial activity against methicillin resistant Staphylococcus aureus assessed as fractional inhibitory concentration index in presence of gentamicin
[11] = tested on: Staphylococcus aureus; experiment: Synergistic antibacterial activity against methicillin resistant Staphylococcus aureus assessed as fractional inhibitory concentration index in presence of norfloxacin; settings: time 24 hrs
[12] = tested on: Staphylococcus aureus; experiment: Synergistic antibacterial activity against methicillin resistant Staphylococcus aureus assessed as fractional inhibitory concentration index in presence of ciprofloxacin
[13] = tested on: Staphylococcus aureus; experiment: Synergistic antibacterial activity against methicillin resistant Staphylococcus aureus assessed as fractional inhibitory concentration index in presence of streptomycin incubated for 24 hrs by checkerboard assay
[14] = tested on: Staphylococcus aureus; experiment: Synergistic antibacterial activity against methicillin resistant Staphylococcus aureus assessed as fractional inhibitory concentration index in presence of erythromycin by checkerboard assay
[15] = tested on: Staphylococcus aureus; experiment: Synergistic antibacterial activity against […] Staphylococcus aureus ATCC 29213 assessed as fractional inhibitory concentration index incubated for 24 hrs in presence of amoxicillin by checkerboard assay
[16] = tested on: Staphylococcus aureus; experiment: Synergistic antibacterial activity against […] Staphylococcus aureus ATCC 29213 assessed as fractional inhibitory concentration index incubated for 24 hrs in presence of ciprofloxacin by checkerboard assay
[17] = tested on: Staphylococcus aureus; experiment: Synergistic antibacterial activity against […] Staphylococcus aureus ATCC 29213 assessed as fractional inhibitory concentration index incubated for 24 hrs in presence of pencillin by checkerboard assay
[18] = tested on: Staphylococcus aureus; experiment: Synergistic antimicrobial activity against methicillin-resistant Staphylococcus aureus CCARM 3089 assessed as fractional inhibitory concentration index in presence of ciprofloxacin incubated for 24 hrs by checkerboard assay
[19] = tested on: Staphylococcus aureus; experiment: Synergistic antibacterial activity against methicillin resistant Staphylococcus aureus assessed as fractional inhibitory concentration index in presence of ceftriaxone
[20] = tested on: Staphylococcus aureus; experiment: Synergistic antibacterial activity against methicillin resistant Staphylococcus aureus assessed as fractional inhibitory concentration index in presence of ampicillin
[21] = tested on: Staphylococcus aureus; experiment: Synergistic antibacterial activity against methicillin resistant Staphylococcus aureus assessed as fractional inhibitory concentration index in presence of penicillin incubated for 24 hrs by checkerboard assay
[22] = tested on: Staphylococcus aureus; experiment: Synergistic antibacterial activity against methicillin resistant Staphylococcus aureus assessed as fractional inhibitory concentration index in presence of ampicillin incubated for 24 hrs by checkerboard assay
[23] = tested on: Staphylococcus aureus; experiment: Synergistic antibacterial activity against methicillin resistant Staphylococcus aureus assessed as fractional inhibitory concentration index in presence of penicillin by checkerboard assay
[24] = tested on: Staphylococcus aureus; experiment: Synergistic antibacterial activity against methicillin resistant Staphylococcus aureus assessed as fractional inhibitory concentration index in presence of levofloxacin
[25] = tested on: Staphylococcus aureus; experiment: Synergistic antibacterial activity against methicillin resistant Staphylococcus aureus assessed as fractional inhibitory concentration index in presence of ceftazidime
[26] = tested on: Staphylococcus aureus; experiment: Synergistic antibacterial activity against methicillin resistant Staphylococcus aureus assessed as fractional inhibitory concentration index in presence of minocycline by checkerboard assay

SMILES: COc1c2ccoc2c(OC)c2oc(=O)ccc12 [ISOPIMPINELLIN]
- fractional inhibitory concentration index (FICI) [1]: <0.5
- fractional inhibitory concentration index (FICI) [2]: <0.5
- fractional inhibitory concentration index (FICI) [3]: <0.5

SMILES: COc1c2ccoc2c(OCC=C(C)C)c2oc(=O)ccc12 [PHELLOPTERIN]
- fractional inhibitory concentration index (FICI) [4]: 0.5
- fractional inhibitory concentration index (FICI) [5]: <0.5

SMILES: COc1c(C)c(O)c(CC=C(C)C)c(O)c1Cc1c(O)c(C(C)=O)c(O)c(CC=C(C)C)c1OC
- fractional inhibitory concentration index (FICI) [6]: 0.008
- fractional inhibitory concentration index (FICI) [7]: 0.393

SMILES: COc1cc(OC)c2ccc(=O)oc2c1OCC=C(C)C [ARTANIN]
- fractional inhibitory concentration index (FICI) [8]: <0.5

SMILES: CC(C)=CCc1c(O)cc(O)c2c1O[C@H](c1ccc(O)cc1)CC2=O
- fractional inhibitory concentration index (FICI) [9]: 0.31
- fractional inhibitory concentration index (FICI) [10]: 0.25
- fractional inhibitory concentration index (FICI) [11]: 0.5
- fractional inhibitory concentration index (FICI) [12]: 0.5

SMILES: CC(C)=CCc1cc([C@@H]2CC(=O)c3ccc(O)c(CC=C(C)C)c3O2)ccc1O [GLABROL]
- fractional inhibitory concentration index (FICI) [13]: 0.188

SMILES: COc1ccc(-c2cc(=O)c3c(O)cc(O)cc3o2)cc1O [DIOSMETIN]
- fractional inhibitory concentration index (FICI) [14]: 0.28

SMILES: O=c1cc(-c2ccccc2)oc2cc(O)c(O)c(O)c12 [BAICALEIN]
- fractional inhibitory concentration index (FICI) [15]: 0.14
- fractional inhibitory concentration index (FICI) [16]: <0.5
- fractional inhibitory concentration index (FICI) [17]: 0.14

SMILES: COc1cc(CNC(=O)CCCC/C=C/C(C)C)ccc1O [CAPSAICIN]
- fractional inhibitory concentration index (FICI) [18]: 0.18

SMILES: O=c1cc(-c2ccc(O)cc2)oc2cc(O)cc(O)c12 [APIGENIN]
- fractional inhibitory concentration index (FICI) [19]: 0.18
- fractional inhibitory concentration index (FICI) [20]: 0.18

SMILES: O=C(/C=C/c1ccc(O)cc1)c1ccc(O)cc1O [ISOLIQUIRITIGENIN]
- fractional inhibitory concentration index (FICI) [9]: 0.312
- fractional inhibitory concentration index (FICI) [21]: 0.375
- fractional inhibitory concentration index (FICI) [22]: 0.375

SMILES: O=C1C[C@@H](c2ccc(O)cc2)Oc2cc(O)ccc21 [LIQUIRTIGENIN]
- fractional inhibitory concentration index (FICI) [9]: 0.372
- fractional inhibitory concentration index (FICI) [23]: 0.375
- fractional inhibitory concentration index (FICI) [22]: 0.375

SMILES: C/C(=C\C(O)=C\O)[C@@H]1Oc2cc(O[C@@H]3O[C@@H](C)[C@H](O)[C@@H](O)[C@H]3O)cc(O)c2C(=O)[C@H]1O
- fractional inhibitory concentration index (FICI) [24]: 0.25
- fractional inhibitory concentration index (FICI) [25]: 0.187

SMILES: O=c1c(O)c(-c2ccc(O)c(O)c2)oc2cc(O)cc(O)c12 [QUERCETIN]
- fractional inhibitory concentration index (FICI) [26]: <=0.5
